Broadly, the IC50 is the concentration that gives 50% inhibition. A high value points to weaker potency in that assay.

Values joined by “and” are separate entries in the source; they are usually repeats but may differ in a detail not shown here. Equal entries are not always repeated.

The target in the assay is SARS-CoV-2 Main Protease (SARS-CoV-2) (UniProt P0DTD1).
For `O=C(Nc1cccnc1)c1cc(Cl)ccc1-c1ccccc1`, the IC50 turned out to be 39.1 µM. For `CNC(=O)CN1C[C@@H](C(=O)Nc2cncc3cccc(Cl)c23)c2cc(Cl)ccc2C1=O` (stereo in doubt), the IC50 came out at 14.6 µM. As for `Cn1nnnc1C1=CCN(C(=O)CC2(C(=O)Nc3cncc4ccccc34)CCOc3ccc(Cl)cc32)CC1` (stereo unspecified), the IC50 amounted to 9.18 µM. Then `CC1(C)OB(c2cnc(C#N)nc2)OC1(C)C`, with > 99.5 µM; and `O=C(Nc1cncc2ccccc12)C1CN(C(=O)c2cnco2)Cc2ccc(Cl)cc21` (stereo unspecified), with 1.07 µM; and `O=C(NCc1ccc2c(c1)OCO2)c1nc(S(=O)(=O)Cc2ccccc2)ncc1Cl`, with 1.4 µM. In the case of `CC(NCc1cnc2ccccn12)c1nnc2ccccn12` (stereo unspecified), the IC50 was > 99.5 µM.

For the molecule `O=C(CCl)N1CCN(S(=O)(=O)c2cccs2)CC1`, the IC50 was 2.07 µM and 2.26 µM.

Take `COC(=O)c1ccc(-c2cc(Cl)cc(CC(=O)Nc3cnccc3C)c2)c(OC)c1`: the IC50 is 9.62 µM and 16.8 µM.

The molecule `O=C(CCl)N1CCN(C(c2ccccc2)c2ccccc2)CC1` registered an IC50 of 1.98 µM. Take `C=CC(=O)N(c1ccc(C(C)(C)C)cc1)C(C(=O)NC(C)(C)C)c1cccnc1` (stereo unspecified): the IC50 was > 99 µM. For `O=C(Cc1cccnc1)Nc1cccc(OC2CC(=O)N2)c1` (stereo unspecified), the IC50 is 82.6 µM and 94.4 µM.

In the case of `C1=C(c2c[nH]c3ccccc23)CCN(Cc2ccno2)C1`, the IC50 is > 99.5 µM.

With `O=C(Cc1cc(Cl)cc(N2CCc3c([nH]c4ccccc34)C2)c1)Nc1cncc2ccccc12`, the IC50 came out at 2.02 µM.

In turn, `CN(c1ccc2c(NC(=O)C3CN(S(=O)(=O)CC4(C#N)CC4)Cc4ccc(Cl)cc43)cncc2c1)S(C)(=O)=O` (stereo unspecified) had an IC50 of 0.232 µM.

For `O=C(NCCc1cccc(F)c1)C(c1cccnc1)N(C(=O)c1cnc[nH]1)c1ccc(OC2CCOC2)cc1` (stereo unspecified), the IC50 turned out to be 25.8 µM. Then `Cn1c(NC(=O)Cc2csc3nccn23)nc2ccc(F)cc21`, with > 99.5 µM; and `Cc1c(Cl)cc(S(=O)(=O)N2CC=C(c3c[nH]c4ncccc34)CC2)cc1[N+](=O)[O-]`, with > 99.5 µM. The molecule `O=C(Cc1cccc(Cl)c1F)Nc1cncc2ccccc12` registered an IC50 of 23.6 µM. In turn, `CC1(CS(=O)(=O)N2Cc3ccc(Cl)cc3C3(CCN(c4cncc5cc(S(C)(=O)=O)ccc45)C3=O)C2)CC1` (stereo unspecified) registered an IC50 of 0.155 µM. Consider `CN(C)CCCN(Cc1cccs1)C(=O)Cc1cncc2ccccc12`, for which the IC50 is > 99.5 µM. Turning to `COCCn1nc(C(=O)N(c2ccc(C(C)(C)C)cc2)C(C(=O)NCCc2cccc(F)c2)c2cccnc2)ccc1=O` (stereo unspecified), the IC50 is > 99.5 µM. For `CC(C)(C)c1ccc(N(C(=O)c2cocn2)C(C(=O)NCCc2cccc(F)c2)c2ccnnc2)cc1` (stereo unspecified), the IC50 came to 2.05 µM. In turn, `CCN(C)S(=O)(=O)N1Cc2ccc(Cl)cc2C2(CCN(c3cncc4ccccc34)C2=O)C1` (stereo unspecified) registered an IC50 of 0.563 µM. The molecule `CC(C)n1nccc1C(=O)N1Cc2ccc(Cl)cc2C2(CCN(c3cncc4ccccc34)C2=O)C1` (stereo unspecified) had an IC50 of 0.268 µM. Regarding `O=C(Cc1cccc(Cl)c1)Nc1n[nH]c2ccnc(Br)c12`, the IC50 is > 99.5 µM. Then `O=C(Cc1cc(Cl)cc(Nc2ccc(OCc3ccccc3)cc2)c1)Nc1cncc2ccccc12`, with 8.23 µM. In turn, `O=C(Cc1cc(Cl)cc(Nc2ccc(-n3cccn3)cc2)c1)Nc1cncc2ccccc12` gave an IC50 of 2.12 µM. Then `C=CC(=O)NCC(=O)N(Cc1ccccc1)C[C@@]1(O)CN2CCC1CC2` (stereo in doubt), with > 99.5 µM; and `CSc1ncc(C#N)c(Nc2cc(Cl)cc(CC(=O)Nc3cncc4ccccc34)c2)n1`, with 1.84 µM; and `O=C1Cc2ccccc2N(C(=O)Cc2cccc(Cl)c2)C1`, with > 99.5 µM. Then `O=C(Cc1cc(Cl)cc(Nc2c(F)cc(Br)cc2F)c1)Nc1cncc2ccccc12`, with 1.54 µM; and `CNC(=O)CN1CC2(CCN(c3cncc4cc(F)ccc34)C2=O)c2cc(Cl)ccc2C1=O` (stereo unspecified), with 0.426 µM; and `CSC1=C(C#N)C2(CCCCC2)C(C#N)=C(NC(=O)CCl)N1`, with 0.745 µM and 1.75 µM.

Regarding `CC(NC(=O)c1ccc2oc(=S)[nH]c2c1)c1nnc2ccccn12` (stereo unspecified), the IC50 was > 99.5 µM. Consider `O=C(Cc1cc(Cl)cc(Cl)c1)Nc1cncc2ccccc12`, for which the IC50 was 1.37 µM.

Consider `O=C(Cc1cc(Cl)cc(Nc2ccc3c(c2)OCCO3)c1)Nc1cncc2ccccc12`, for which the IC50 was found to be 2.12 µM.

For `Cc1c(Cl)cccc1S(=O)(=O)N(Cc1ccc(F)cc1)c1ccc2[nH]c(=O)[nH]c2c1`, the IC50 is > 99.5 µM.

With `Cc1cc(Br)cc(C)c1Nc1cc(Cl)cc(CC(=O)Nc2cncc3ccccc23)c1`, the IC50 is 1.71 µM. `CC(C)(C)c1ccc(N(C(=O)c2ccco2)C(C(=O)NCCc2cccc(F)c2)c2snc3ccccc23)cc1` (stereo unspecified) had an IC50 of 5.33 µM. As for `O=C(Cc1cccc(Cl)c1)NC1COCc2ccccc21` (stereo unspecified), the IC50 amounted to 69 µM.

Consider `CC(C)(C#N)CS(=O)(=O)N1Cc2ccc(Cl)cc2[C@H](C(=O)Nc2cncc3ccccc23)C1` (stereo in doubt), for which the IC50 was 0.055 µM and 0.0969 µM and 0.141 µM. Then `N#CC1(CS(=O)(=O)N2Cc3ccc(Cl)cc3C(C(=O)Nc3cncc4ccc(F)cc34)C2)CC1` (stereo unspecified), with 0.137 µM.

For `O=C1CC(C(=O)N2CCN(c3cccc(Cl)c3)CC2)c2ccccc2N1` (stereo unspecified), the IC50 amounted to 20.9 µM. For `CNC(=O)CN1CC(C)(C(=O)Nc2cncc3cc(S(C)(=O)=O)ccc23)c2cc(Cl)ccc2S1(=O)=O` (stereo unspecified), the IC50 is 0.131 µM and 0.189 µM. Then `O=C(Cc1cc(Cl)cc(NCc2ccc(F)c(Cl)c2)c1)Nc1cncc2ccccc12`, with 2.49 µM; and `COc1ccc([N+](=O)[O-])cc1COC(=O)c1cnc2ccccc2n1`, with > 99.5 µM; and `Cc1ccncc1NC(=O)Cc1cc(Cl)cc(-c2ccc(C3(C)CCO3)cc2)c1` (stereo unspecified), with 8.95 µM.

In the case of `COc1c(C(=O)N(c2ccc(C(C)(C)C)cc2)C(C(=O)NCCc2cccc(F)c2)c2cccnc2)[nH]c(=O)[nH]c1=O` (stereo unspecified), the IC50 is > 99.5 µM. Consider `O=C(Cc1cc(Cl)cc(NCc2cc(F)ccc2Br)c1)Nc1cncc2ccccc12`, for which the IC50 amounted to 1.88 µM. Turning to `CN1Cc2ccc(Cl)cc2C(C(=O)Nc2cncc3ccccc23)C1` (stereo unspecified), the IC50 worked out at 2.01 µM.

Take `CNS(=O)(=O)N1CCc2ccc(Cl)cc2C1C(=O)Nc1cncc2ccccc12` (stereo unspecified): the IC50 is 1.55 µM.

Consider `Cc1cn(-c2cc(Nc3cc(Cl)cc(CC(=O)Nc4cncc5ccccc45)c3)cc(C(F)(F)F)c2)cn1`, for which the IC50 stood at 2.53 µM.

As to `CCC(c1ccncc1)N(C)C(=O)Cc1c[nH]c2ncccc12` (stereo unspecified), the IC50 is > 99.5 µM. `O=C(NCc1ccc(Cl)cc1CN1CCN(C(=O)CCl)CC1)[C@@H]1CCCOC1` (stereo in doubt) came in with an IC50 of 12.1 µM. As to `Nc1cccc2c(=O)[nH]n(-c3cc(Cl)cc(CC(=O)Nc4cncc5ccccc45)c3)c(=O)c12`, the IC50 was 5.92 µM.

For the molecule `NCc1cn(CC(=O)N(CC(=O)N2CCNCC2)c2ccc(-c3ccccc3)cc2)nn1`, the IC50 was > 99.5 µM.

On to `CS(=O)(=O)c1ccc2c(N3CCC4(CN(S(=O)(=O)CC5(C#N)CC5)Cc5ccc(Cl)cc54)C3=O)cncc2c1` (stereo unspecified), for which the IC50 is 0.103 µM. On to `CCOc1ccc(N(C(=O)c2cocn2)C(C(=O)NCCc2cccc(F)c2)c2cccnc2)cc1` (stereo unspecified), for which the IC50 amounted to 15.5 µM.

`O=C(NCc1ccccn1)[C@H]1CN(C(=O)CCl)CCN1S(=O)(=O)c1ccsc1` (stereo in doubt) returned an IC50 of 0.307 µM.

Molecule `O=C(Cc1cc(Cl)cc(NC[C@H](O)c2ccc(O)cc2)c1)Nc1cncc2ccccc12` (stereo in doubt) had an IC50 of 1.64 µM. Take `CCN(c1ccccc1)S(=O)(=O)c1ccc(OC)c(NC(=O)CCl)c1`: the IC50 stood at 3.23 µM. The molecule `N#CCC1(CS(=O)(=O)N2Cc3ccc(Cl)cc3C(C(=O)Nc3cncc4ccccc34)C2)CC1` (stereo unspecified) displayed an IC50 of 0.128 µM. Then `N#CCc1cccc(NC(=O)c2cnn3cc(Br)cnc23)n1`, with > 99.5 µM; and `COC1(c2cccc(Cl)c2)CCCN(c2cncc3ccccc23)C1=O` (stereo unspecified), with 2.08 µM; and `CC(C)(C)c1ccc(N(C(=O)c2nc3c(s2)CCC3)C(C(=O)NCCc2cccc(F)c2)c2cccnc2)cc1` (stereo unspecified), with > 99.5 µM. On to `CC(C)C[C@@H](NC(=O)[C@@H](Cc1ccccc1)NC(=O)[C@H](N)Cc1ccccc1)C(=O)N[C@H](CCCCN)C(=O)N1CCC(N)(C(=O)O)CC1` (stereo in doubt), for which the IC50 is > 99 µM. The molecule `O=C(CN1CC(C(=O)Nc2cncc3ccccc23)c2cc(Cl)ccc2C1=O)NC1CCC1` (stereo unspecified) registered an IC50 of 0.129 µM. With `Cc1ccn2cnnc2c1NC(=O)Cc1cccc(Cl)c1`, the IC50 is 75.3 µM. Consider `O=C(Cc1cccc(Cl)c1)Nc1cncn2cnnc12`, for which the IC50 is > 99.5 µM.

As for `O=C(NCCNc1ccccc1)c1cc(=O)[nH]c2ccccc12`, the IC50 was > 99.5 µM. Then `CC(C)(C)c1ccc(N(C(=O)c2cocn2)C(C(=O)NCCc2nnn[nH]2)c2cccnc2)cc1` (stereo unspecified), with > 99.5 µM; and `O=C(Cc1cc(Cl)cc(Nc2ccccc2Cc2ccccc2)c1)Nc1cncc2ccccc12`, with 1.97 µM; and `Nc1nn(C(=O)Cc2cccc(Cl)c2)c2cccc(F)c12`, with > 99.5 µM. Then `CNC(=O)CN1CC(C)(C(=O)Nc2cncc3cccc(Cl)c23)c2cc(Cl)ccc2S1(=O)=O` (stereo unspecified), with 1.16 µM; and `Cn1cncc1C(=O)N(c1ccc(C(C)(C)C)cc1)C(C(=O)NCCc1cccc(F)c1)c1cccnc1` (stereo unspecified), with > 99.5 µM; and `O=C(Cn1cn[nH]c1=O)NC1CCCCCC1c1ccccc1C(F)(F)F` (stereo unspecified), with > 99.5 µM. In the case of `Cc1nc2ccc(NS(=O)(=O)c3cccc4nonc34)cc2o1`, the IC50 was > 99.5 µM. Turning to `CC1(NC(=O)Cc2cccc(Cl)c2)CCNC1=O` (stereo unspecified), the IC50 was > 99.5 µM. The molecule `Cc1ccncc1NC(=O)Cc1cc(C#N)cc(OC2CC(=O)N2)c1` (stereo unspecified) yielded an IC50 of 11.6 µM. The molecule `Cc1cccc(CC2CCN(C(=O)CCl)CC2)c1` came in with an IC50 of 14.7 µM. Then `O=C(CCl)N1CCCN(S(=O)(=O)c2cccc(F)c2)CC1`, with 17.2 µM; and `O=C(NC(c1ccccc1)c1ccccc1)[C@@H]1CN(C(=O)CCl)CCN1S(=O)(=O)c1ccsc1` (stereo in doubt), with 0.635 µM; and `O=C(Cc1cc(Cl)cc(NCc2ccc([N+](=O)[O-])cc2)c1)Nc1cncc2ccccc12`, with 1.82 µM. As to `CC(C)(C)c1ccc(N(C(=O)c2cnc(C3CCOC3)s2)C(C(=O)NCCc2cccc(F)c2)c2cccnc2)cc1` (stereo unspecified), the IC50 is > 99.5 µM. With `O=C(NCCc1cccc(F)c1)C(c1cccnc1)N(C(=O)c1cnc[nH]1)C1CCN(c2ccccc2)C1` (stereo unspecified), the IC50 was > 99 µM.

The values above are taken from the COVID Moonshot data (paper PMC7615835).
